“Also recorded” adds a separate entry of the source.
Tests used:
[1] = tested on: K+ channels in human platelets; test: Ionomycin-stimulated 86Rb+ efflux from perfused platelets; format: cell-based; conditions: for Effect on ionomycin-stimulated 86Rb+ efflux, pooled data (FIG. 3a) / Inhibition of ionomycin-stimulated 86Rb+ efflux in 9 of 11 control subjects / Inhibition of ionomycin-stimulated 86Rb+ efflux in two control subjects: control subjects; for Effect on ionomycin-stimulated 86Rb+ efflux, pooled data (FIG. 3a) / Effect on ionomycin-stimulated 86Rb+ efflux, pooled data (FIG. 3b): n=11; for Effect on ionomycin-stimulated 86Rb+ efflux, pooled data (FIG. 3a) / Effect on ionomycin-stimulated 86Rb+ efflux, pooled data (FIG. 3b) / Inhibition in controls (%) of ionomycin-stimulated 86Rb+ efflux / Inhibition in Alzheimer's disease (%) of ionomycin-stimulated 86Rb+ efflux: ionomycin 1 μM, apamin 100 nM, charybdotoxin 300 nM; for Effect on ionomycin-stimulated 86Rb+ efflux, pooled data (FIG. 3a): P<0.0001; for Inhibition of ionomycin-stimulated 86Rb+ efflux in 9 of 11 control subjects: the 9 of 11 that responded; for Inhibition of ionomycin-stimulated 86Rb+ efflux in two control subjects: the other 2 of 11 (minimal effects); for Inhibition of ionomycin-stimulated 86Rb+ efflux in 8 of 11 patients with AD: 8 of 11 (minimal effects); for Effect on ionomycin-stimulated 86Rb+ efflux, pooled data (FIG. 3b): patients with Alzheimer's disease, P=0.883; for Inhibition in controls (%) of ionomycin-stimulated 86Rb+ efflux: platelets of age- and sex-matched controls; for Inhibition in controls (%) of ionomycin-stimulated 86Rb+ efflux / Inhibition in Alzheimer's disease (%) of ionomycin-stimulated 86Rb+ efflux: median (interquartile range); for Inhibition in Alzheimer's disease (%) of ionomycin-stimulated 86Rb+ efflux: platelets of patients with AD
Experimental: (§1) Platelet perfusion^17. Blood was drawn by venepuncture and anticoagulated with acid-citratedextrose (ACD). Platelets were prepared by centrifugation within an hour of venesection and incubated with ^86 Rb^+ for 2 h. The platelet suspension (2.5×10^7 platelets per ml) was then injected into perfusion chambers, where the cells settled and became immobilized on inert filters (Millipore). The platelets were then continuously perfused with Krebs solution, to allow them to stabilize for 20 min before the start of each experiment. The perfusion buffer was then changed for 5 min to Krebs solution containing thrombin (0.3 IU/ml) or ionomycin (1 μM), after which the perfusion was switched to the original solution and continued for another 20 min. From 0 to 10 min after the addition of thrombin or ionomycin the perfusate was collected at 1-min intervals and thereafter at 2-min intervals. The solutions used for perfusion were bubbled with 95% O2 and 5% CO2 throughout the experiment (pH 7.4). At the end of the experiment the polycarbonate filters were retrieved and placed in scintillation vials, to which 3.5 ml of Aquasafe 500 scintillation fluid was added. The radioactivity in the perfusates and filters was determined by liquid scintillation counting in a Beckmann LS 6000 SE counter and the loss of radioactivity from the cells was calculated. The amount of ^86 Rb^+ (pmol) in each fraction of perfusate collected was determined using the specific activity of the isotope. The radioactivity was measured in each fraction and the results were plotted as the cumulative efflux of ^86 Rb^+ against time.
(§2) Buffers and drucas. ACD contained citric acid (15 g), trisodium citrate (25 g), and dextrose (20 g) in 1 l of distilled water. Krebs buffer contained (mmol/l): NaCl (119); KCl (4.6); CaCl2 (1.5); NaH2 PO4 (1.2); MgCl2 (1.2); NaHCO3 (15); and glucose (11). Apamin, charybdotoxin, α-dendrotoxin, iberiotoxin, ionomycin, and human thrombin were purchased from Sigma Chemical Company, Poole, Dorset. ^86 RbCl was purchased from Amersham International plc (Amersham, Bucks).
(§3) Thrombin and ionomycin. Solutions of thrombin were prepared freshly in distilled water for each experiment and further diluted to a concentration of 0.3 IU/ml in Krebs solution. Stock solutions of ionomycin (10 mM in dimethylsulphoxide) were prepared and stored in aliquots at 4° C. On the day of the experiment ionomycin was further diluted in Krebs solution to a concentration of 1 μM.
(§4) Apamin, charybdotoxin, iberiotoxin, and α-dendrotoxin. Apamin, charybdotoxin, iberiotoxin, and α-dendrotoxin were […]. Apamin, (100 nM), charybdotoxin (300 nM), iberiotoxin (300 nM), and α-dendrotoxin (200 nM) were reconstituted in distilled water and stored in aliquots at -20° C. On the day of the experiment the toxins were further diluted in Krebs solution. Apamin was pre-incubated with the platelets (added at time -20 min) and charybdotoxin, iberiotoxin, and α-dendrotoxin were added with thrombin (at 0 min) for a period of 5 min.
(§5) Data Dresentation and analysis. The results in FIGS. 1-3 are shown as cumulative effluxes of ^86 Rb^+ from 0 to 14 min. The data are shown as means±SEMs (n=number of experiments with platelets obtained from different volunteers). The efflux data were analyzed using analysis of variance with repeated measures.
(§6) K^+ channel fluxes. Platelets were prepared and their K^+ channel fluxes studied as described by DeSilva, H. A. et al^17, by loading fresh platelets with ^86 Rb^+ (used as a radioactive analogue of K^+)^18,19 and stimulating ^86 Rb^+ efflux with thrombin and ionomycin.

[2] = tested on: K+ channels in human platelets; test: Thrombin-stimulated 86Rb+ efflux from perfused platelets; format: cell-based; conditions: for Effect on thrombin-stimulated 86Rb+ efflux, pooled data (FIGS. 1a, 2a) / Inhibition of thrombin-stimulated 86Rb+ efflux in 8 of 11 control subjects / Inhibition of thrombin-stimulated 86Rb+ efflux in the other three control subjects: control subjects; for Effect on thrombin-stimulated 86Rb+ efflux, pooled data (FIGS. 1a, 2a): n=11, P<0.0001; for Effect on thrombin-stimulated 86Rb+ efflux, pooled data (FIGS. 1a, 2a) / Effect on thrombin-stimulated 86Rb+ efflux, pooled data (FIGS. 1b, 2b) / Inhibition in controls (%) of thrombin-stimulated 86Rb+ efflux / Inhibition in Alzheimer's disease (%) of thrombin-stimulated 86Rb+ efflux: thrombin 0.3 IU/ml, apamin 100 nM, charybdotoxin 300 nM, α-dendrotoxin 200 nM; for Inhibition of thrombin-stimulated 86Rb+ efflux in 8 of 11 control subjects: the 8 of 11 that responded; for Inhibition of thrombin-stimulated 86Rb+ efflux in the other three control subjects: the other 3 of 11 (minimal effects); for Inhibition of thrombin-stimulated 86Rb+ efflux in 9 of 12 patients with AD: 9 of 12 (minimal effects); for Inhibition of thrombin-stimulated 86Rb+ efflux in the other three patients with AD: the other 3 of 12; for Effect on thrombin-stimulated 86Rb+ efflux, pooled data (FIGS. 1b, 2b): patients with Alzheimer's disease, n=12; for Inhibition in controls (%) of thrombin-stimulated 86Rb+ efflux: platelets of age- and sex-matched controls; for Inhibition in controls (%) of thrombin-stimulated 86Rb+ efflux / Inhibition in Alzheimer's disease (%) of thrombin-stimulated 86Rb+ efflux: median (interquartile range); for Inhibition in Alzheimer's disease (%) of thrombin-stimulated 86Rb+ efflux: platelets of patients with AD
Experimental: as §1, §2, §3, §4, §5, §6

sodium/potassium pump = test: Uptake of 86Rb+ by platelets; format: cell-based, human; conditions: unpublished observations of de Silva & Aronson

Row | Compound | Effect on ionomycin-stimulated 86Rb+ efflux, pooled data (FIG. 3a) [1] | Inhibition of ionomycin-stimulated 86Rb+ efflux in 9 of 11 control subjects [1] | Inhibition of ionomycin-stimulated 86Rb+ efflux in two control subjects [1] | Inhibition of ionomycin-stimulated 86Rb+ efflux in 8 of 11 patients with AD [1] | Effect on ionomycin-stimulated 86Rb+ efflux, pooled data (FIG. 3b) [1] | Inhibition in controls (%) of ionomycin-stimulated 86Rb+ efflux ([1]; iberiotoxin 300 nM) | Inhibition in Alzheimer's disease (%) of ionomycin-stimulated 86Rb+ efflux ([1]; iberiotoxin 300 nM) | Effect on thrombin-stimulated 86Rb+ efflux, pooled data (FIGS. 1a, 2a) [2] | Inhibition of thrombin-stimulated 86Rb+ efflux in 8 of 11 control subjects [2] | Inhibition of thrombin-stimulated 86Rb+ efflux in the other three control subjects [2] | Inhibition of thrombin-stimulated 86Rb+ efflux in 9 of 12 patients with AD [2] | Inhibition of thrombin-stimulated 86Rb+ efflux in the other three patients with AD [2] | Effect on thrombin-stimulated 86Rb+ efflux, pooled data (FIGS. 1b, 2b) [2] | Inhibition in controls (%) of thrombin-stimulated 86Rb+ efflux [2] | Inhibition in Alzheimer's disease (%) of thrombin-stimulated 86Rb+ efflux [2] | also measured
1 | CC(C)C[C@@H]1NC(=O)[C@H](C)NC(=O)[C@H]([C@@H](C)O)NC(=O)[C@H](CCC(=O)O)NC(=O)[C@@H]2CCCN2C(=O)[C@H](C)NC(=O)[C@H](CCCCN)NC(=O)[C@@H]2CSSC[C@@H](C(=O)N[C@@H](CCC(N)=O)C(=O)N[C@@H](CCC(N)=O)C(=O)N[C@@H](Cc3cnc[nH]3)C(N)=O)NC(=O)[C@H](CCCNC(=N)N)NC(=O)[C@H](CCCNC(=N)N)NC(=O)[C@H](C)NC(=O)[C@H](CSSC[C@H](N)C(=O)N[C@@H](CC(N)=O)C(=O)N2)NC1=O [Apamin] | inhibited | at least 18% | less than 12% | less than 12% | no significant effect | 30 (20-31) % | 1 (0-20) % | inhibited | at least 18% | less than 10% | less than 10% | at least 16% | no significant effect | 26 (20-27) % | 0 (0-0) % | Effect on ionomycin-stimulated 86Rb+ efflux, pooled data (FIG. 3a) ([1]; listed as apamin): significant reductions; Effect on ionomycin-stimulated 86Rb+ efflux, pooled data (FIG. 3b) ([1]; listed as apamin): minimal effects; Effect on thrombin-stimulated 86Rb+ efflux, pooled data (FIGS. 1a, 2a) ([2]; listed as apamin): significant reductions; Effect on thrombin-stimulated 86Rb+ efflux, pooled data (FIGS. 1b, 2b) ([2]; listed as apamin): neither apamin nor charybdotoxin caused significant reductions
2 | C[C@@H]1O[C@@H](O[C@H]2C[C@@H](O)[C@]3(CO)[C@H]4[C@H](O)C[C@]5(C)[C@@H](C6=CC(=O)OC6)CC[C@]5(O)[C@@H]4CC[C@]3(O)C2)[C@H](O)[C@H](O)[C@H]1O [ouabain] |  |  |  |  |  |  |  |  |  |  |  |  |  |  |  | Share of 86Rb+ uptake in platelets inhibitable by ouabain (sodium/potassium pump): over 90%
3 | charybdotoxin | inhibited; also recorded: significant reductions | ≥ 22% | less than 12% | less than 12% | no significant effect; also recorded: minimal effects | 28 (20-34) % | 4 (1-26) % | inhibited; also recorded: significant reductions | ≥ 16% | less than 10% | less than 10% | at least 16% | no significant effect; also recorded: neither apamin nor charybdotoxin caused significant reductions | 22 (18-29) % | 0 (0-4) % | 
4 | iberiotoxin (QFTDVDCSVSKECWSVCKDLFGVDRGKCMGKKCRCYQ; UniProt P24663 1-37, looked up) [purchased from Sigma] |  |  |  |  |  | 2 (0-3) % | 0 (0-4) % |  |  |  |  |  |  |  |  | Effect on ionomycin-stimulated effluxes in platelets from any individual ([1]; patients with AD and controls, iberiotoxin 300 nM): no effect
5 | α-dendrotoxin |  |  |  |  |  |  |  | inhibited |  |  |  |  | inhibited | 26 (20-29) % | 19 (18-27) % | 
